Laboratory results from article PMC10601989, “Charge and lipophilicity are required for effective block of the hair-cell mechano-electrical transducer channel by FM1-43 and its derivatives” (Frontiers in Cell and Developmental Biology, 2023).

These molecules were tested on T1, hair-cell mechano-electrical transducer (MET) channel (native, mouse cochlear outer hair cells) (assay: whole-cell patch clamp of MET currents, fluid-jet bundle stimulation, fractional block). Conditions: -64 mV; extracellular superfusion, 1.3 mM Ca2+, pH 7.48, room temperature; permeant voltage-dependent block.
T1 construct: gene Tmc1; native full-length MET complex in outer hair cells of P2 organotypic cochlear cultures kept 1-2 days in vitro; TMC1 and/or TMC2 pore with TMIE (subunits named only in the discussion; copy numbers from the C. elegans cryo-EM structure it cites); with Transmembrane inner ear expressed protein
Format: cell-based

Compound	% block at 10 μM
CCCCN(CCCC)c1ccc(/C=C/c2cc[n+](CCC[N+](CC)(CC)CC)cc2)cc1 [compound 13550, FM1-43]	~ 30%
CCCCN(CCCC)c1ccc(/C=C/c2cc[n+](CCCC(=O)OCC)cc2)cc1 [compound 13551, 13551]	> 80%
CCCCN(CCCC)c1ccc(/C=C/c2cc[n+](CCCCC[N+](CC)(CC)CC)cc2)cc1 [compound 13667, 13667]	> 80%
CCCCN(CCCC)c1ccc(/C=C/c2cc[n+](CCCC[N+](CC)(CC)CC)cc2)cc1 [compound 13669, 13669]	> 80%
